{
  "source": "patent US9567649B2",
  "about": "“System for identification of microorganism and detection of infectious disease” (priority 2011, dated 2017)",
  "molecules": {"B1": {"name": "S(Topl): REEAD sensor previously demonstrated to react specifically with hTopl in human cell extract (SEQ ID NO: 25) (nucleic acid)", "chain": "AGAAAAATTTTTAAAAAAACTGTGAAGATCGCTTATTTTTTTAAAAATTTTTCTAAGTCTTTTAGATCCCTCAATGCTGCTGCTGTACTACGATCTAAAAGACTTAGA", "modifications": "chemistry not given here"}},
  "assay_type_in_all_cases": "biochemical, Plasmodium falciparum",
  "key": {"pfTopl [1]": {"test_system": "pfTopl", "experiment": "DNA cleavage-ligation assay with radio-labeled duplex DNA in absence or presence of CPT", "conditions": "60 nM CPT, duplex OL62/OL63, 20 min at 37° C.", "experimental": "Detection of PfTopl activity using radio-labeled DNA substrates: DNA cleavage reactions were carried out by incubating 20 nM duplex OL37/OL56 or OL62/OL63 with 500 fmol of pfTopl or hTopl in the absence or presence of 60 nM CPT for 20 min at 37° C. in 10 mM Tris (pH 7.5), 5 mM MgCI2, and 5 mM CaCI2 in a final volume of 20 μI. After the 20 min incubation, reactions were stopped with 0.5% (w/v) SDS. Samples were subjected to ethanol precipitation, resuspended in 10 μI of 1 mg/ml trypsin and incubated at 37° C. for 30 min. Reaction products were analyzed by denaturing polyacrylamide gel electrophoresis following standard procedures, and radioactive bands were visualized by PhosphorImaging."}, "pfTopl [2]": {"test_system": "pfTopl", "experiment": "REEAD: circularization of oligonucleotide sensors by purified pfTopl", "conditions": "control-circle added", "excerpt": "Like human topoisomerasel (hTopl), pfTopl belongs to the family of nuclear typelB topoisomerases, which introduce transient single-strand breaks in double-stranded DNA with preference for a very degenerate consensus sequence. Cleavage results in a covalent enzyme-DNA intermediate allowing religation of the generated nick (FIG. 23). […] Based on this, five different oligonucleotides with potential of being circularized specifically by pfTopl cleavage-ligation were designed. These oligonucleotides (PfTopl (S1-S5)) all folded into a hairpin structure containing a probe- and a primer-annealing sequence in the single-stranded loop and a potential pfTopl recognizable sequence at the end of the double-stranded stem region (FIG. 1 b). […] To allow comparative quantification of signals generated in different reactions, a known concentration of control-circle with a unique probe-annealing sequence was added to the reaction mixtures before RCA and resulting RCPs visualized using a green-fluorescent probe. […]\n(§1) REEAD-microscopic readout: The 5′-amine-conjugated primer was coupled to CodeLink Activated Slides (SurModics) according to the manufacturer's description. […] Quantification of pfTopl specific signals was performed as previously described^1. REEAD-HRP readout: Primer coupling to NHS-activated M-PVA Akl 1 magnetic beads (Chemagen) was performed according to the manufacturer's description. […]"}, "pfTopl [3]": {"test_system": "pfTopl", "experiment": "REEAD in nuclear extract from HEK293T cells with or without spike-in pfTopl", "excerpt": "The specificity of pfTopl(S1) for pfTopl in crude biological samples was addressed using nuclear extract from human HEK293T cells with or without spike-in pfTopl as a model for Plasmodium infection. […] Consequently, green signals observed in FIG. 22b, right panel, originated from hTopl and pfTopl activity in combination where pfTopl(S1) and S(Topl) competed for reaction by pfTopl at the expense of sensitivity.\nCell culture and nuclear extract preparation: Human embryonic kidney HEK293T cells were cultured in Dulbecco's Modified Eagle Medium (GIBCO) supplemented with 10% fetal bovine serum (FBS) (GIBCO), 100 units/mL penicillin and […] streptomycin (Invitrogen). Cells were incubated in a humidified incubator (5% CO2/95% air atmosphere at 37° C.). Cells were harvested with 0.5% Trypsin-EDTA (GIBCO).\nMedia was discarded and the cell washed in Phosphate-Buffered Saline (1×PBS) prior to nuclear extraction performed as previously described′. […]\nas §1"}},
  "data": [
    {"molecule": "CC[C@@]1(O)C(=O)OCc2c1cc1n(c2=O)Cc2cc3ccccc3nc2-1", "note": "[camptothecin]", "values": [
      {"measurement": "effect of camptothecin on pfTopl ligation product", "setting": "pfTopl [1]", "value": "A ligation product is only observed upon incubation of the substrate with pfTopl in the absence of camptothecin"}
    ]},
    {"molecule": "pfTopl(S1): hairpin oligonucleotide sensor for pfTopl, sequence in the 2nd table (TCTAGAAAGTATAGGAACTTCGAACGACTCAGAATGACTG; hairpin, further chemistry not given here)", "values": [
      {"measurement": "circularization efficiency by pfTopl (red signals relative to green signals)", "setting": "pfTopl [2]", "value": "most efficient sensor of pfTopl"},
      {"measurement": "specificity of sensor for pfTopl in nuclear extract", "setting": "pfTopl [3]", "value": "specificity of pfTopl(S1) for pfTopl even on a background of human nucleus content"}
    ]},
    {"molecule": "B1", "values": [
      {"measurement": "circularization efficiency by pfTopl (red signals relative to green signals)", "setting": "pfTopl [2]", "value": "circularizes S(Topl)"}
    ]}
  ]
}
